PubChem BioAssay (NCI)
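Test compounds were applied to cells in 96-well plates for 48 hours at 5 doses. GI50 = concentration required for 50% inhibition of growth. TGI marks complete inhibition of growth.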

Legend:
Assay in all cases: NCI-60 cell line screen, 48 h
EKVX NSCLC = tested on: EKVX NSCLC
A549 NSCLC = tested on: A549 NSCLC
786-0 renal = tested on: 786-0 renal
NCI-H460 lung = tested on: NCI-H460 lung
RXF 393 renal = tested on: RXF 393 renal
SF-295 CNS = tested on: SF-295 CNS
OVCAR-3 ovarian = tested on: OVCAR-3 ovarian
SN12C renal = tested on: SN12C renal
LOX IMVI melanoma = tested on: LOX IMVI melanoma
SNB-19 CNS = tested on: SNB-19 CNS
SK-MEL-5 melanoma = tested on: SK-MEL-5 melanoma
OVCAR-4 ovarian = tested on: OVCAR-4 ovarian
HL-60(TB) leukemia = tested on: HL-60(TB) leukemia
CAKI-1 renal = tested on: CAKI-1 renal
BT-549 breast = tested on: BT-549 breast
IGROV1 ovarian = tested on: IGROV1 ovarian
HOP-62 NSCLC = tested on: HOP-62 NSCLC
KM12 colon = tested on: KM12 colon
SF-539 CNS = tested on: SF-539 CNS
T-47D breast = tested on: T-47D breast
NCI/ADR-RES ovarian = tested on: NCI/ADR-RES ovarian
CCRF-CEM leukemia = tested on: CCRF-CEM leukemia
K-562 leukemia = tested on: K-562 leukemia
U251 CNS = tested on: U251 CNS
UACC-257 melanoma = tested on: UACC-257 melanoma
UACC-62 melanoma = tested on: UACC-62 melanoma
NCI-H522 lung = tested on: NCI-H522 lung
COLO 205 colon = tested on: COLO 205 colon
SK-MEL-28 melanoma = tested on: SK-MEL-28 melanoma
A498 renal = tested on: A498 renal
OVCAR-8 ovarian = tested on: OVCAR-8 ovarian
SF-268 CNS = tested on: SF-268 CNS
NCI-H23 lung = tested on: NCI-H23 lung
MDA-MB-231 breast = tested on: MDA-MB-231 breast
HT29 colon = tested on: HT29 colon
M14 melanoma = tested on: M14 melanoma
SK-MEL-2 melanoma = tested on: SK-MEL-2 melanoma
OVCAR-5 ovarian = tested on: OVCAR-5 ovarian
TK-10 renal = tested on: TK-10 renal
DU-145 prostate = tested on: DU-145 prostate
HCC-2998 colon = tested on: HCC-2998 colon
ACHN renal = tested on: ACHN renal
MOLT-4 leukemia = tested on: MOLT-4 leukemia
MDA-MB-435 = tested on: MDA-MB-435
SR leukemia = tested on: SR leukemia
HOP-92 NSCLC = tested on: HOP-92 NSCLC
SW-620 colon = tested on: SW-620 colon
HCT-15 colon = tested on: HCT-15 colon
HCT-116 colon = tested on: HCT-116 colon
HS 578T breast = tested on: HS 578T breast
MCF7 breast = tested on: MCF7 breast
PC-3 prostate = tested on: PC-3 prostate
UO-31 renal = tested on: UO-31 renal
NCI-H226 lung = tested on: NCI-H226 lung
SNB-75 CNS = tested on: SNB-75 CNS
SK-OV-3 ovarian = tested on: SK-OV-3 ovarian
RPMI-8226 leukemia = tested on: RPMI-8226 leukemia
MALME-3M melanoma = tested on: MALME-3M melanoma

## COc1cc2c3c(c1OC)C(=O)C(=O)C1=C3N(CCC1)CC2
EKVX NSCLC
  TGI: 64.8 µM
A549 NSCLC
  TGI: > 100 µM
786-0 renal
  TGI: > 100 µM
NCI-H460 lung
  TGI: 37.5 µM
RXF 393 renal
  TGI: > 100 µM
SF-295 CNS
  TGI: 76.9 µM
OVCAR-3 ovarian
  TGI: 73.3 µM
SN12C renal
  TGI: > 100 µM
LOX IMVI melanoma
  TGI: > 100 µM
SNB-19 CNS
  TGI: > 100 µM
SK-MEL-5 melanoma
  TGI: > 100 µM
OVCAR-4 ovarian
  TGI: 62.2 µM
HL-60(TB) leukemia
  TGI: 70.4 µM
CAKI-1 renal
  TGI: > 100 µM
BT-549 breast
  TGI: 72.6 µM
IGROV1 ovarian
  TGI: > 100 µM
HOP-62 NSCLC
  TGI: 96.9 µM
KM12 colon
  TGI: 44.5 µM
SF-539 CNS
  TGI: 80.1 µM
T-47D breast
  TGI: > 100 µM
NCI/ADR-RES ovarian
  TGI: > 100 µM
CCRF-CEM leukemia
  TGI: 80.4 µM
K-562 leukemia
  TGI: 71.8 µM
U251 CNS
  TGI: > 100 µM
UACC-257 melanoma
  TGI: 67 µM
UACC-62 melanoma
  TGI: 42 µM
NCI-H522 lung
  TGI: 72.2 µM
COLO 205 colon
  TGI: 35.3 µM
SK-MEL-28 melanoma
  TGI: > 100 µM
A498 renal
  TGI: 92.6 µM
OVCAR-8 ovarian
  TGI: > 100 µM
SF-268 CNS
  TGI: 92.1 µM
NCI-H23 lung
  TGI: 86.3 µM
MDA-MB-231 breast
  TGI: > 100 µM
HT29 colon
  TGI: > 100 µM
M14 melanoma
  TGI: 70 µM
SK-MEL-2 melanoma
  TGI: > 100 µM
OVCAR-5 ovarian
  TGI: > 100 µM
TK-10 renal
  TGI: > 100 µM
DU-145 prostate
  TGI: > 100 µM
HCC-2998 colon
  TGI: > 100 µM
ACHN renal
  TGI: > 100 µM
MOLT-4 leukemia
  TGI: 56.3 µM
MDA-MB-435
  TGI: 53.8 µM
SR leukemia
  TGI: 55.5 µM
HOP-92 NSCLC
  TGI: 60.4 µM
SW-620 colon
  TGI: > 100 µM
HCT-15 colon
  TGI: > 100 µM
HCT-116 colon
  TGI: 47.3 µM
HS 578T breast
  TGI: 47.6 µM
MCF7 breast
  TGI: 37.2 µM
PC-3 prostate
  TGI: > 100 µM
UO-31 renal
  TGI: > 100 µM

## Cc1cc(C)c(O)c(CNCCCNCc2cc(C)cc(C)c2O)c1
EKVX NSCLC
  GI50: 5.04 µM
  TGI: 20.2 µM
A549 NSCLC
  GI50: 11 µM
  TGI: 24.6 µM
786-0 renal
  GI50: 4.69 µM
  TGI: 18.7 µM
NCI-H460 lung
  GI50: 2.13 µM
  TGI: 4.65 µM
RXF 393 renal
  GI50: 1.93 µM
  TGI: 4.24 µM
SF-295 CNS
  GI50: 1.87 µM
  TGI: 3.81 µM
OVCAR-3 ovarian
  GI50: 3.82 µM
  TGI: 15 µM
SN12C renal
  GI50: 5.23 µM
  TGI: 18.8 µM
LOX IMVI melanoma
  GI50: 1.52 µM
  TGI: 2.88 µM
SNB-19 CNS
  GI50: 3.88 µM
  TGI: 15.1 µM
NCI-H226 lung
  GI50: 6.46 µM
  TGI: 21.9 µM
SK-MEL-5 melanoma
  GI50: 1.57 µM
  TGI: 2.93 µM
OVCAR-4 ovarian
  GI50: 3.7 µM
  TGI: 16.1 µM
HL-60(TB) leukemia
  GI50: 2.33 µM
  TGI: 4.75 µM
SNB-75 CNS
  GI50: 1.39 µM
  TGI: 2.78 µM
CAKI-1 renal
  GI50: 5.45 µM
  TGI: 18.7 µM
BT-549 breast
  GI50: 10.9 µM
  TGI: 24.5 µM
IGROV1 ovarian
  GI50: 4.52 µM
  TGI: 18.5 µM
HOP-62 NSCLC
  GI50: 6.68 µM
  TGI: 21.8 µM
KM12 colon
  GI50: 2.58 µM
  TGI: 7.24 µM
SF-539 CNS
  GI50: 1.59 µM
  TGI: 3.11 µM
T-47D breast
  GI50: 1.73 µM
  TGI: 4.29 µM
NCI/ADR-RES ovarian
  GI50: 2.17 µM
  TGI: 5.75 µM
CCRF-CEM leukemia
  GI50: 3.82 µM
  TGI: 15.3 µM
K-562 leukemia
  GI50: 2.11 µM
  TGI: 4.89 µM
U251 CNS
  GI50: 1.95 µM
  TGI: 3.89 µM
UACC-257 melanoma
  GI50: 2.14 µM
  TGI: 4.08 µM
UACC-62 melanoma
  GI50: 1.89 µM
  TGI: 3.43 µM
NCI-H522 lung
  GI50: 3.41 µM
  TGI: 14.1 µM
COLO 205 colon
  GI50: 1.89 µM
  TGI: 3.89 µM
SK-MEL-28 melanoma
  GI50: 1.65 µM
  TGI: 3.19 µM
A498 renal
  GI50: 1.71 µM
  TGI: 9.24 µM
OVCAR-8 ovarian
  GI50: 5.09 µM
  TGI: 20.3 µM
SF-268 CNS
  GI50: 5.97 µM
  TGI: 21.2 µM
NCI-H23 lung
  GI50: 7.46 µM
  TGI: 21.2 µM
MDA-MB-231 breast
  GI50: 1.93 µM
  TGI: 4.45 µM
HT29 colon
  GI50: 3.02 µM
  TGI: 10.7 µM
M14 melanoma
  GI50: 1.8 µM
  TGI: 3.55 µM
SK-MEL-2 melanoma
  GI50: 2.15 µM
  TGI: 4.5 µM
OVCAR-5 ovarian
  GI50: 4.23 µM
  TGI: 19.5 µM
TK-10 renal
  GI50: 6.16 µM
  TGI: 20.6 µM
DU-145 prostate
  GI50: 5.19 µM
  TGI: 17.7 µM
HCC-2998 colon
  GI50: 1.45 µM
  TGI: 2.82 µM
ACHN renal
  GI50: 3.55 µM
  TGI: 10.8 µM
SK-OV-3 ovarian
  GI50: 3.62 µM
  TGI: 13.6 µM
MOLT-4 leukemia
  GI50: 3.14 µM
  TGI: 10.2 µM
MDA-MB-435
  GI50: 1.54 µM
  TGI: 2.93 µM
SR leukemia
  GI50: 2.06 µM
  TGI: 6 µM
HOP-92 NSCLC
  GI50: 1.94 µM
  TGI: 7.23 µM
SW-620 colon
  GI50: 3.19 µM
  TGI: 11 µM
HCT-15 colon
  GI50: 2.01 µM
  TGI: 4.66 µM
HCT-116 colon
  GI50: 2.99 µM
  TGI: 9.49 µM
RPMI-8226 leukemia
  GI50: 3.03 µM
  TGI: 8.72 µM
MALME-3M melanoma
  GI50: 1.73 µM
  TGI: 3.29 µM
HS 578T breast
  GI50: 2.05 µM
  TGI: 5.03 µM
MCF7 breast
  GI50: 1.67 µM
  TGI: 3.36 µM
PC-3 prostate
  GI50: 6.69 µM
  TGI: 19.8 µM
UO-31 renal
  GI50: 2.22 µM
  TGI: 12.1 µM
